Data on 14 compounds can be found in the SangsterLogP compilation.

By logP is commonly meant a log measure of how a compound divides between an organic and an aqueous phase. High values mean a more lipophilic compound, low ones a more hydrophilic compound. Turning to `CC(C)OC(=O)Nc1cccc(Cl)c1`, the log partition coefficient (logP) was found to be 3.42.
In turn, `CN(C)C(=O)C(c1ccccc1)c1ccccc1` registered a logP of 2.17.
`Cc1[nH]c(=O)n(C(C)(C)C)c(=O)c1Cl` had a log partition coefficient (logP) of 1.44.
For `CC(Cl)(Cl)C(=O)O` the value was 1.34; for `ClC1=C(Cl)[C@]2(Cl)C3C(Cl)C(Cl)CC3[C@@]1(Cl)C2(Cl)Cl` (some centres undefined), 5.89.
Then `Cc1cc(Cl)ccc1OCC(=O)O`, with 2.69; and `COC(=O)C=C(C)OP(=O)(OC)OC`, with 0.55.
In the case of `CC(C)Nc1nc(Cl)nc(NC(C)C)n1`, the logP stood at 3.09.
Regarding `CCCN(CCC)c1c([N+](=O)[O-])cc(S(C)(=O)=O)cc1[N+](=O)[O-]`, the logP came out at 4.78.
Then `CCC(C)Nc1c([N+](=O)[O-])cc(C(C)(C)C)cc1[N+](=O)[O-]` (centres undefined), with 4.54; and `O=C(O)c1c(Cl)ccc(Cl)c1Cl`, with 4.34; and `CCCN(CC1CC1)c1c([N+](=O)[O-])cc(C(F)(F)F)cc1[N+](=O)[O-]`, with 5.16.
For `Nc1cc(Cl)cc(C(=O)O)c1Cl` the value was 1.46; for `CCC(C)n1c(=O)[nH]c(C)c(Br)c1=O` (centres undefined), 1.33.
